This note sets out measurements from US20250179059A1 (The Regents of the University of California, priority 2021, published 2025).

This assay addresses T1, human BRD4 bromodomain II (Homo sapiens, UniProt O60885).
T1 construct: human BRD4 bromodomain II [based on Genbank NM_058243, residues 349-460]; host or cells: E. coli
Kind of assay: Bromodomain binding assay (AlphaScreen), BRD4 BDII. To be noted: AlphaScreen assay, Table C2; read-out: BRD4 BDII IC50. An outline of the steps:
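Tagged BRD4 BDI or BDII constructs, expressed in E. coli, competed against a K5/K8/K12/K16-acetylated biotin-H4 peptide. Proximity signal between bead pairs after room-temperature incubations gave concentration-response curves, from which IC50 was derived.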
(In general: In Alpha technology, singlet oxygen from a donor bead excites a nearby acceptor bead.)

Counter-ions that a name gives are not always drawn.

A word on the IC50: it is the midpoint of a concentration-inhibition curve. For the compound `CC(=O)Nc1ccc(-c2cccc(-c3cccc(N4CC(C)NC(C)C4)c3)c2O)cc1F` (centres unmarked) [Example 200, N-(3″-(3,5-dimethylpiperazin-1-yl)-3-fluoro-2′-hydroxy-[1,1′:3′,1″-terphenyl]-4-yl)acetamide], the IC50 lay within 1 to 10 nM.

On to `COc1cc(-c2cccc(-c3cc(Cl)c(NC(C)=O)c(Cl)c3)c2O)ccc1NC(C)=O` [Example 132, N,N′-(3,5-Dichloro-2′-hydroxy-3″-methoxy-[1,1′:3′,1″-terphenyl]-4,4″-diyl)diacetamide], for which the 50% inhibitory concentration (IC50) lay in the range of 10 to 100 nM.

On to `CC(=O)Nc1ccc(-c2cccc(-c3cnc4c(ccn4C)c3)c2O)cc1F` [Example 125, N-(3-Fluoro-2′-hydroxy-3′-(1-methyl-1H-pyrrolo[2,3-b]pyridin-5-yl)-[1,1′-biphenyl]-4-yl)acetamide], for which the half-inhibitory concentration (IC50) is greater than 100 nM.

As for `CC(=O)Nc1ccc(-c2cccc(-c3cc(N4CCNCC4)no3)c2O)cc1OC1CCC1` [Example 24, N-(3-cyclobutoxy-2′-hydroxy-3′-(3-(piperazin-1-yl)isoxazol-5-yl)-[1,1′-biphenyl]-4-yl)acetamide 2,2,2-trifluoroacetate], the IC50 lay within 10 to 100 nM.

For `CC(=O)Nc1ccc(-c2cc(F)cc(-c3ccc(Cl)c(N4CCNCC4)c3)c2O)cc1F` [Example 242, N-(4″-chloro-3,5′-difluoro-2′-hydroxy-3″-(piperazin-1-yl)-[1,1″-terphenyl]-4-yl)acetamide], the concentration for half-maximal inhibition (IC50) was in the range of 1 to 10 nM.

For the compound `CC(=O)Nc1ccc(-c2cccc(-c3ccc(N)nc3)c2O)cc1F` [Example 110, N-(3′-(6-Aminopyridin-3-yl)-3-fluoro-2′-hydroxy-[1,1′-biphenyl]-4-yl)acetamide], the IC50 lay within 10 to 100 nM.

`CC(=O)Nc1ccc(-c2cccc(-c3ccc(F)cc3)c2O)cc1F` [Example 59, N-(3,4″-Difluoro-2′-hydroxy-[1,1′:3′,1″-terphenyl]-4-yl)acetamide]: the IC50 was greater than 100 nM.

For `CC(=O)Nc1ccc(-c2cccc(-c3ccc(NC(C)=O)c(OC4CCC4)c3)c2O)cc1F` [Example 45, N,N′-(3-Cyclobutoxy-3″-fluoro-2′-hydroxy-[1,1′:3′,1″-terphenyl]-4,4″-diyl)diacetamide], the IC50 was greater than 100 nM.

With `CC(=O)N1CCC(=O)N(C)c2cc(-c3cccc(-c4cc(N5CCNCC5)no4)c3O)ccc21` [Example 38, 5-Acetyl-8-(2-hydroxy-3-(3-(piperazin-1-yl)isoxazol-5-yl)phenyl)-1-methyl-1,3,4,5-tetrahydro-2H-benzo[b][1,4]diazepin-2-one], the half-inhibitory concentration (IC50) is greater than 100 nM.

As for `CC(=O)Nc1c(F)cc(-c2cccc(-c3cccc(N4CCNCC4)c3)c2O)cc1OCC1CC1` [Example 184, N-(3-(cyclopropylmethoxy)-5-fluoro-2′-hydroxy-3″-(piperazin-1-yl)-[1,1′:3′,1″-terphenyl]-4-yl)acetamide], the IC50 was in the range of 10 to 100 nM.

Consider `CC(=O)Nc1ccc(-c2cccc(-c3cccc(N4CC5CCC4CN5)c3)c2O)cc1F` (centres unmarked) [Example 174, N-(3″-(2,5-diazabicyclo[2.2.2]octan-2-yl)-3-fluoro-2′-hydroxy-[1,1′:3′,1″-terphenyl]-4-yl)acetamide], for which the half-maximal inhibitory concentration (IC50) lay within 10 to 100 nM.

In the case of `CC(=O)Nc1ccc(-c2cccc(-c3cccc(N4CCCCC4)c3)c2O)cc1F` [Example 166, N-(3-fluoro-2′-hydroxy-3″-(piperidin-1-yl)-[1,1′:3′,1″-terphenyl]-4-yl)acetamide], the IC50 was greater than 100 nM.

As to `CC(=O)Nc1c(F)cc(-c2cccc(-c3cc(N4CCNCC4)no3)c2O)cc1Cl` [Example 126, N-(3-Chloro-5-fluoro-2′-hydroxy-3′-(3-(piperazin-1-yl)isoxazol-5-yl)-[1,1′-biphenyl]-4-yl)acetamide 2,2,2-trifluoroacetate], the IC50 lay in the range of 10 to 100 nM.

`O=C(Nc1ccc(-c2cccc(-c3cc(N4CCNCC4)no3)c2O)cc1)C(F)(F)F` [Example 39, 2,2,2-Trifluoro-N-(2′-hydroxy-3′-(3-(piperazin-1-yl)isoxazol-5-yl)-[1,1′-biphenyl]-4-yl)acetamide 2,2,2-trifluoroacetate]: the half-inhibitory concentration (IC50) is greater than 100 nM.

For `CC(=O)N(C)c1ccc(-c2cccc(-c3cc(N4CCNCC4)no3)c2O)cc1` [Example 9, N-(2′-Hydroxy-3′-(3-(piperazin-1-yl)isoxazol-5-yl)-[1,1′-biphenyl]-4-yl)-N-methylacetamide], the 50% inhibitory concentration (IC50) is greater than 100 nM.

Take `CC(=O)Nc1ccc(-c2cccc(-c3cnn(C)c3)c2O)cc1` [Example 13, N-(2′-Hydroxy-3′-(1-methyl-1H-pyrazol-4-yl)-[1,1′-biphenyl]-4-yl)acetamide]: the 50% inhibitory concentration (IC50) was greater than 100 nM.

Regarding `CC(=O)Nc1ccc(-c2cccc(-c3ccc4c(c3)CCCN4C(C)=O)c2O)cc1F` [Example 101, N-(3′-(1-Acetyl-1,2,3,4-tetrahydroquinolin-6-yl)-3-fluoro-2′-hydroxy-[1,1′-biphenyl]-4-yl)acetamide], the half-maximal inhibitory concentration (IC50) was greater than 100 nM.

Take `CC(=O)Nc1ccc(-c2cccc(-c3cccc(OC(C)C)c3)c2O)cc1F` [Example 107, N-(3-Fluoro-2′-hydroxy-3″-isopropoxy-[1,1′:3′,1″-terphenyl]-4-yl)acetamide]: the concentration for half-maximal inhibition (IC50) was greater than 100 nM.

In the case of `CC(=O)Nc1ccc(-c2cccc(-c3cc(N4CCN(S(=O)(=O)c5ccccc5)CC4)no3)c2O)cc1` [Example 58, N-(2′-Hydroxy-3′-(3-(4-(phenylsulfonyl)piperazin-1-yl)isoxazol-5-yl)-[1,1′-biphenyl]-4-yl)acetamide], the IC50 was greater than 100 nM.

On to `CCC(=O)Nc1ccc(-c2cccc(-c3cc(N4CCNCC4)no3)c2O)cc1` [Example 116, N-(2′-Hydroxy-3′-(3-(piperazin-1-yl)isoxazol-5-yl)-[1,1′-biphenyl]-4-yl)propionamide 2,2,2-trifluoroacetate], for which the IC50 is greater than 100 nM.

On to `CC(=O)Nc1ccc(-c2cccc(-c3cc(N4CCNCC4)no3)c2O)cc1F` [Example 34, N-(3-Fluoro-2′-hydroxy-3′-(3-(piperazin-1-yl)isoxazol-5-yl)-[1,1′-biphenyl]-4-yl)acetamide trifluoroacetate], for which the 50% inhibitory concentration (IC50) was in the range of 10 to 100 nM.

For `CNC(=O)Nc1ccc(-c2cccc(-c3cc(N4CCNCC4)no3)c2O)cc1` [Example 149, 1-(2′-hydroxy-3′-(3-(piperazin-1-yl)isoxazol-5-yl)-[1,1′-biphenyl]-4-yl)-3-methylurea], the half-inhibitory concentration (IC50) is greater than 100 nM.

For `CC(=O)Nc1ccc(-c2cccc(-c3cccc(C4CCNCC4)c3)c2O)cc1F` [Example 210, N-(3-fluoro-2′-hydroxy-3″-(piperidin-4-yl)-[1,1′:3′,1″-terphenyl]-4-yl)acetamide], the IC50 is 1 to 10 nM.

`CC(=O)Nc1ccc(-c2cccc(-c3ccc4[nH]cnc4c3)c2O)cc1F` [Example 131, N-(3′-(1H-Benzo[d]imidazol-5-yl)-3-fluoro-2′-hydroxy-[1,1′-biphenyl]-4-yl)acetamide]: the IC50 fell in the range of 10 to 100 nM.

With `CC(=O)Nc1ccc(-c2cccc(-c3cc(C)c(NC(C)=O)c(F)c3)c2O)cc1F` [Example 139, N,N′-(3,3″-difluoro-2′-hydroxy-5-methyl-[1,1′:3′,1″-terphenyl]-4,4″-diyl)diacetamide], the IC50 was greater than 100 nM.

Regarding `O=C1CCCN1c1c(Cl)cc(-c2cccc(-c3cc(N4CCNCC4)no3)c2O)cc1Cl` [Example 172, 1-(3,5-dichloro-2′-hydroxy-3′-(3-(piperazin-1-yl)isoxazol-5-yl)-[1,1′-biphenyl]-4-yl)pyrrolidin-2-one], the IC50 was greater than 100 nM.
